Values quoted from earlier work in patent publication US6627665B2 (Arch Chemicals, Inc., priority 2001, dated 2003).

Test system: rats

On1ccccc1=S.On1ccccc1=S.[Cu] [Copper pyrithione powder, copper pyrithione]
acute inhalation toxicity relative to zinc pyrithione powder: more toxic than zinc pyrithione powder
